The record followed here is paper PMC13534789, “Molecular Glue Degraders Enhance CAPRIN1‐Dependent Lysosomal Degradation of APP and Reduce Amyloid β in Alzheimer's Disease” (Advanced Science, 2026).

Read-outs that look alike come from different tables or passages of the source.

One experiment relates to Aβ42. The experiment is described as follows: Aβ42 ELISA of conditioned media, iPSC-derived neurons. It counts as cell-based, human. The note with it: for IC50: Homo sapiens, Neuron. The text has this:
The human iPSC SAD2.3 (UCSD234i‐SAD2‐3) and HVRDi002A were purchased from Wicell, UKBi011A from the European Bank for induced pluripotent stem cells, Sigma, AG25367, AG25370, AG27606, AG27608, AG27609, AG28049, AG28262, and AG27602 from Coriell. All iPSCs were maintained and expanded on Matrigel (Growth factor reduced Matrigel matrix, Corning) in mTeSR1 complete medium (mTeSR1 medium + 5X supplement, Stem Cell Technologies). For iPSC‐Ns transgene delivery, each iPSC line was transduced with lentiviral particles for pLVX‐UbC‐rtTA‐Ngn2:2A:Ascl1 […]), followed by selection in the presence of puromycin ([…], Gibco). To initiate conversion, iPSCs were differentiated into neurons using the established Ascl1/Mash1 (33) and Neurogenin 2 (Ngn2) (34) protocols.
iPSC‐Ns or HEK‐APP695WT were treated with drugs, and secreted Aβ42 peptides inculture soup were quantified using the Human Amyloid β1‐42 human ELISA kit (Thermo Fisher) according to the manufacturer's protocol. Mouse brain extraction was performed as previously described, with minor modifications. Mouse brain tissues were homogenized at a 1:10 weight‐to‐volume ratio in Tris‐buffered saline (TBS; 50 mM Tris, pH 7.4, 150 mM NaCl) supplemented with 2 mM EDTA and protease inhibitors. TBS‐homogenized brains were centrifuged for 1 h at 16 000 g. To extract total Aβ, including insoluble fractions, formic acid was added to a final concentration of 70%, and the samples were thoroughly mixed by pipetting. Homogenates were centrifuged at 100 000 g for 1 h at 4°C, and the resulting supernatants were collected. Prior to quantification, formic acid‐containing samples were neutralized with 1 M Tris base (pH 11). Aβ40 and Aβ42 levels were measured using human‐specific ELISA kits (Invitrogen) and normalized to total protein concentrations determined by the BCA assay (Thermo Scientific). For Aβ quantification in 3D organoids, 3D organoids’ processing and ELISA analysis were performed with minor modifications from previously described protocols. Briefly, cerebral organoids were lysed in RIPA buffer supplemented with protease and phosphatase inhibitor cocktails (Sigma), followed by sonication and incubation on ice for 60 min. Lysates were centrifuged at 13 000 rpm for 1 h at 4°C, and the supernatants were collected as the RIPA‐soluble fraction. The remaining pellets were resuspended in 70% formic acid, sonicated, and subsequently neutralized with Tris buffer to obtain the formic acid‐solubilized fraction. Aβ42 levels in both fractions were measured using human‐specific ELISA kits (Thermo Fisher) according to the manufacturer's instructions. Formic acid extracts were appropriately neutralized prior to ELISA. Aβ levels were normalized to total protein concentration determined by BCA assay.
In general terms: ELISA stands for enzyme-linked immunosorbent assay.

The next experiment concerns the target T1, APP695‐HiBiT (Homo sapiens, UniProt P05067+Q14444).
T1 construct: expressed in transfected cells; host or cells: HEK293, lentiviral transduction, hygromycin-selected single clones (#3, #9)
The experiment is described as follows: APP695-HiBiT luminescence assay in HEK293 cells. It counts as cell-based. The text has this:
We previously reported CAPRIN1‐targeted molecular degraders that bind to CAPRIN1 and F‐box protein 42 (FBXO42), promoting FBXO42‐mediated proteasomal degradation of small ubiquitin‐related modifier 1 (SUMO1), an oncoprotein, in human cancers. CAPRIN1 is a neuronal RNA‐binding protein involved in neuronal development and neurodegeneration. CAPRIN1 was reported to be a binding partner of APP [28]. Therefore, we thought to investigate whether CAPRIN1‐targeted degraders could promote APP degradation in APP‐expressing cell models. To establish screening models, we tagged wild‐type APP695 (APP695), the predominant neuronal isoform, with the small HiBiT tag (APP695‐HiBiT) and expressed APP695‐HiBiT in HEK293 cells. Cell lysates were analyzed using a luminescence‐based assay of HiBiT‐tagged protein [30], identifying clone #3 and #9 with robust APP695‐HiBiT expression (Figure S1A). Western blotting and ELISA confirmed intracellular expression of APP695 and extracellular release of Aβ42 in these clones (Figure S1B,C).
HEK293 cells were purchased from the American Type Culture Collection (ATCC). […] Once expanded, clones were analyzed by ELISA for amyloid beta 42 (Aβ42), western blot for APP expression, and Hibit‐lytic assay (Promega). […]

Setting [1] is: 120 h, AG27606 neurons, 5-day treatment, ELISA, normalized to DMSO, read-out: IC50, Aβ42 dose–response.

T1 sequence (P05067 18-695 isoform P05067-4 limits assumed): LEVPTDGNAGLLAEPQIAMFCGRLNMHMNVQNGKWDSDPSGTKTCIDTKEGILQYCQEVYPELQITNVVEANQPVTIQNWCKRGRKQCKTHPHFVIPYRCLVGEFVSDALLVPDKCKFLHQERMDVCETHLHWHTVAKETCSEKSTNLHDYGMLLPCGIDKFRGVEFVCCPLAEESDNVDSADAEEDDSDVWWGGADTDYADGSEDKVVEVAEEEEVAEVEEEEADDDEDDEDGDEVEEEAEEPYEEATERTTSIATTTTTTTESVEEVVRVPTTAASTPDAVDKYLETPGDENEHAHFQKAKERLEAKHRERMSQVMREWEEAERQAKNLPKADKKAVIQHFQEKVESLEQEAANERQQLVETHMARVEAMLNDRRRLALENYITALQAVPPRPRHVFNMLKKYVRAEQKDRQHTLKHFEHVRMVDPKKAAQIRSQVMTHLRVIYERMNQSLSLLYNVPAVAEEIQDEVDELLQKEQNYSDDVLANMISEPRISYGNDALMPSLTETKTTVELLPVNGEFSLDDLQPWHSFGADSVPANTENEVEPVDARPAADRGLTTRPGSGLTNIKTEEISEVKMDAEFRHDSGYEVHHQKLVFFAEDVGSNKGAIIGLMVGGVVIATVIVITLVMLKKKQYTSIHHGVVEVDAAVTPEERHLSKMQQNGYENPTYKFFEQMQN
T1 sequence (Q14444 2-709 limits assumed): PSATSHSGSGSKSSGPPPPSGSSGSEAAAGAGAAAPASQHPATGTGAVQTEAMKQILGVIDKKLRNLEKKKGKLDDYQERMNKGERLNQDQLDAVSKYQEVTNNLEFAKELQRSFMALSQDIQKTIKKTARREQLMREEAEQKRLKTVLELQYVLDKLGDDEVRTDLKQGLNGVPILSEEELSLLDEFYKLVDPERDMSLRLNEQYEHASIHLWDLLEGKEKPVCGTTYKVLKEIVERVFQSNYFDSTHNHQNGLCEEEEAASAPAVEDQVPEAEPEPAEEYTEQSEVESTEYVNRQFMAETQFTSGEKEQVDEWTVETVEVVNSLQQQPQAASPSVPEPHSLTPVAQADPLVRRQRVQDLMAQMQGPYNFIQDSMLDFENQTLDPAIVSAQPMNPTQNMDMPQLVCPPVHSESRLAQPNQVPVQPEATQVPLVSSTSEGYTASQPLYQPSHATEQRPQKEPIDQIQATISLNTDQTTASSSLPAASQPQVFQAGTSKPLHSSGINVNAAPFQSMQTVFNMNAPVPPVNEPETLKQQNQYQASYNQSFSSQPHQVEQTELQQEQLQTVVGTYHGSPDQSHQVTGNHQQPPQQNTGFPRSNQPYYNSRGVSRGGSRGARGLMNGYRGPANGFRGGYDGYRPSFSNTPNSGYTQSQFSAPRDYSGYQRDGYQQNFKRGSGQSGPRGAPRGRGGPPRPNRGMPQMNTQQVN

What is called IC50 is the concentration needed to halve the response being measured. Regarding `N#Cc1cccc(NC(=O)Nc2nc3ccc(C(=O)N4CCOCC4)cc3s2)c1` [compound 0043], in the experiment on Aβ42 (10 µM, 72 h), the “Aβ42 secretion across iPSC-Ns from sAD, fAD and non-AD donors” value is given as “effectively lowered Aβ42 secretion”. Further, the IC50 in the experiment with Aβ42 (setting [1]) was 2.1 µM; in the experiment with Aβ42 (120 h, sAD2.3 neurons, 5 days treatment, ELISA, read-out: IC50, relative Aβ42 levels in conditioned media) it was 1.8 µM; in the experiment with Aβ42 (SAD2.3-Ns and AG27606-Ns, read-out: IC50 values, Aβ42 secretion), 1.8 to 2.1 µM. In the experiment on Aβ42 (sAD2.3 neurons, 10 µM, 72 h), the “Aβ42 levels in culture media” value was “reduced Aβ42 levels”. Further, the “APP695-HiBiT levels in library screen” value at APP695‐HiBiT (10 µM, 24 h, APP695-HiBiT clones, vs DMSO) is on record as “more effective”.
As to `COc1cccc(NC(=O)Nc2nc3ccc(C(=O)N4CCOCC4)cc3s2)c1` [compound 0152], in the experiment on Aβ42 (10 µM, 72 h), the “Aβ42 secretion across iPSC-Ns from sAD, fAD and non-AD donors” value is “consistently reduced both APP and Aβ42 levels”. In the experiment with Aβ42 (setting [1]), the IC50 came out at 0.9 µM. Besides, the “APP695-HiBiT levels, dose and time course” value on APP695‐HiBiT (HEK-APP695-HiBiT cells) is “dose‐ and time‐dependent reduction in APP695‐HiBiT levels”.
